The record followed here is ChEMBL document CHEMBL6134796, “Development and Evaluation of Indole-Based Phospholipase D Inhibitors for Lung Cancer Immunotherapy” (J Med Chem, 2025).

One assay has as its system A549. In words: Cytotoxicity against human A549 cells assessed as inhibition of cell growth incubated for 48 hrs by WST-1 assay. It counts as functional, cell-based. The conditions noted are these: A549, 48 h.
Assay [1] in a line: Inhibition of PLD in human A549 cells measured after 1 hr by amplex red phospholipase D assay. In kind it is cell-based.
Assay [2] concerns HCT-116. In words: Residual PLD activity in human HCT-116 cells at 10 uM measured after 1 hr by amplex red phospholipase D assay as % of control.
For assay [3], the system named is HCT-116. In words: Cytotoxicity against human HCT-116 cells assessed as inhibition of cell growth incubated for 48 hrs by WST-1 assay. It counts as functional, cell-based. The conditions noted are these: HCT-116, 48 h. A general note: Tetrazolium dyes change colour on reduction, which living cells bring about.

By IC50 is commonly meant the concentration needed to halve the response being measured. As to `O=C(Oc1cc(C(F)(F)F)cc(C(F)(F)F)c1)c1cc2cc(F)ccc2[nH]1`, the IC50 in the assay with A549 was 50 µM; in assay [1], 3.1 µM; in the assay with HCT-116 [3], more than 50 µM. This molecule also gave a level, % of control with HCT-116 [2] of 33.4%.
In the assay on HCT-116 [2], `O=C(Nc1ccc(F)cc1)c1cc2cc(F)ccc2[nH]1` returned a level, % of control of 53.2%.
In turn, `O=C(Nc1ccc(O)c(O)c1)c1c[nH]c2ccccc12` showed a level, % of control with HCT-116 [2] of 51.1%.
The same measure, in the same setting: to `O=C(CCCc1c[nH]c2ccccc12)Nc1cc(C(F)(F)F)cc(C(F)(F)F)c1` belongs 55.5%; to `C[C@@H](CN1CCC(n2c(=O)[nH]c3cc(Cl)ccc32)CC1)NC(=O)c1ccc2ccccc2c1`, 30.4%; to `O=C(Cc1c[nH]c2ccccc12)Nc1ccc(O)c(O)c1`, 54.4%.
The same measure, in the same setting: then `O=C(Nc1cc(F)cc(F)c1)c1cc2cc(F)ccc2[nH]1`, with 51.1%; and `O=C(CCc1c[nH]c2ccccc12)Nc1cccc(F)c1`, with 50.6%.
The same measure, in the same setting: then `COc1ccc(CNC(=O)c2cc3cc(F)ccc3[nH]2)cc1OC`, with 48%.
On to `O=C(Nc1ccc(O)c(O)c1)c1cc2cc(F)ccc2[nH]1`, for which the IC50 was more than 200 µM in the assay with A549, 4.31 µM in assay [1] and more than 50 µM in the assay on HCT-116 [3].
Consider `COc1ccc(NC(=O)c2cc3cc(F)ccc3[nH]2)cc1OC`, for which the level, % of control with HCT-116 [2] stood at 52.2%.
On the same count and under the same terms, to `O=C(Cc1c[nH]c2ccccc12)Nc1cc(C(F)(F)F)cc(C(F)(F)F)c1` belongs 53%; to `O=C(Nc1cccc(C(F)(F)F)c1)c1cc2cc(F)ccc2[nH]1`, 47.6%.
As for `O=C(Nc1cc(C(F)(F)F)cc(C(F)(F)F)c1)c1cc2cc(C(F)(F)F)ccc2[nH]1`, the level, % of control in the assay on HCT-116 [2] came to 45.8%.
